Consider two compounds from patent US20120108666A1, “Treatment of Cell Proliferative Disorders” (priority 2006, published 2012).

The test system of one data set is PHA-activated PBMCs. The data set can be described thus: Inhibition of PHA-activated PBMCs (lymphocyte proliferation). The settings on record: varying concentrations. The data set is classed as cell-based, human. The procedure: (§1) The jurkat E6.1 line is a Syk-deficient line; in fact, AV 61S after 7 days has no effect on this cell line (i.e., neither apoptosis nor inhibition, see […]). […] The viability study has been performed after 24 and 48 hours of incubation, each time for 3 evaluations; within 1, 3 and 6 hours.
FIGS. 1 and 2 show the effect of diluent on compounds of the invention.

Data set [1] relates to jurkat E6.1 line (Syk-deficient). In words: E6.1 Jurkat cell survival after seven days (FIG. 3). The data set is classed as cell-based. The settings on record: after 7 days. The method, then:
as §1

For another data set, the system named is E6.1 Jurkat cells. The data set can be described thus: Viability of E6.1 Jurkat cells after 24 and 48 hours (FIGS. 18, 19). The data set is classed as cell-based. The settings on record: 24 and 48 hours of incubation. The method, then:
FIG. 18 illustrates, in comparison with cyclosporin-treated Jurkat cells, the viability of E6.1 Jurkat cells treated with differing concentrations of AV 61S or AV 74S after 24 hours; and
FIG. 19 illustrates, in comparison with cyclosporin-treated Jurkat cells, the viability of E6.1 Jurkat cells treated with differing concentrations of AV 61S or AV 74S after 48 hours.
as §1

A further data set concerns HL-60 cells. In words: XTT viability of HL-60 cells after 3 days, with and without piceatannol. The data set is classed as cell-based, human. The conditions noted are these: for viability of HL-60 cells, XTT method: 3 days. An excerpt: Secondly, the effect of compounds of the invention may be compared to the natural inhibitor of Syk, piceatannol.
(Tetrazolium assays rely on reduction of a dye to a coloured formazan, in cell work by metabolically active cells.)

The subject of data set [2] is Syk-containing Jurkat cells. The data set can be described thus: Jurkat cell survival after seven days (FIG. 4). The data set is classed as cell-based. The settings on record: 50 μg/ml. The procedure: FIG. 4 illustrates the effect of AV 61S and AV 74S on Jurkat cell survival after a seven day period;
as §1

`CC(CO)OCC(C)OCC(C)OCC(C)OCC(C)OCC(C)OCC(C)OC[C@H](Cc1ccccc1)NC(=O)CCc1ccc(O)cc1` (stereo partly drawn) [AV 61S]: the “inhibitory effect on PHA-activated PBMCs” value was “inhibitory effect” in the data set on PHA-activated PBMCs (DMSO carrier) and “lesser inhibitory effect” in the data set on PHA-activated PBMCs (PBS carrier). In addition, in data set [1], the “effect on Syk-deficient jurkat E6.1 line (apoptosis, inhibition)” value is given as “no effect”. In addition, in the data set with E6.1 Jurkat cells, the “killing of E6.1 Jurkat cells (viability study)” value is “do not kill them”. Moreover, the “viability of HL-60 cells, XTT method” value in the data set with HL-60 cells (50 μg/ml with Pic 10 μM) is 97 % of control; in the data set with HL-60 cells (50 μg/ml with Pic 30 μM) it was 83 % of control; with HL-60 cells (50 μg/ml, no piceatannol), 81 % of control; in the data set with HL-60 cells (100 μg/ml with Pic 10 μM) it was 59 % of control; in the data set on HL-60 cells (100 μg/ml with Pic 30 μM), 23 % of control; with HL-60 cells (100 μg/ml, no piceatannol) it was 36 % of control. Moreover, the “killing of Syk-containing Jurkat cells” value in data set [2] is around 100%.
For `Oc1cc(O)cc(/C=C/c2ccc(O)c(O)c2)c1` [piceatannol, reference compound], the “blocking of the inhibitory effect of AV 74S by piceatannol” value in the data set with HL-60 cells (AV 74S at 100 μg/ml, HL-60) is listed as “at least partially blocks the inhibitory effect of AV 74S”.
